{
  "source": "patent US20130172306A1",
  "about": "“USE OF AN ESTROGEN DERIVATIVE FOR THE MANUFACTURE OF PHARMACEUTICAL COMPOSITIONS USEFUL FOR THE TREATMENT AND/OR PREVENTION OF PSYCHIATRIC DISEASES AND FOR THE TREATMENT AND PREVENTION OF SAID DISEASES” (priority 2010, published 2013)",
  "key": {"SK—N—SH cells": {"system": "SK—N—SH cells", "conditions": "Green P S et al. 1997; cited from earlier work"}, "[1]": {"system": "LAPC-4 prostate tumour xenograft", "conditions": "xenograft animals; Kuiao Y et al. 2007; cited from earlier work"}, "[2]": {"system": "ovariectomised female Sprague-Dawley rats", "experiment": "novelty suppressed feeding (NSF) test", "assay_type": "in vivo, rat", "conditions": "through a stomach tube, tested two hours after administration, after 24 h food deprivation, versus vehicle, p<0.05", "protocol": "In the course of our experiment the active agent 17-alpha-estradiol of formula (I) was tested in the animal model “novelty suppressed feeding” (NSF). NFS is a conflict test during which the subject of the test has to resolve a conflict between the stimulus of urgent food intake and the anxiety induced by a novel environment [Bodnoff S R et al.: The effects of chronic antidepressant treatment in an animal model of anxiety. Psychopharmacology (Berl) 95:298-302 (1988)]; Bodnoff S R et al.: A comparison of the effects of diazepam versus several typical and atypical anti-depressant drugs in an animal model of anxiety. Psychopharmacology (Berl) 97:277-279 (1989)]. The NSF model has widespread use in studying efficiency and mechanism of antidepressant drugs and in identification of new antidepressant drugs [Santarelli L et al.: Requirement of hippocampal neurogenesis for the behavioral effects of antidepressants. Science 301:805-809 (2003); Warner-Schmidt J L et al.: VEGF is an essential mediator of the neurogenic and behavioral actions of antidepressants. […]\nAt the beginning of the NSF test the test animal was placed in a corner of a 75×75×50 cm dark Plexiglas cage. […] The time from the start of the test to the beginning of food intake (first biting) was measured and recorded. Every test was recorded by means of a video camera suspended over the cage. […]"}, "[3]": {"system": "LAPC-4 prostate tumour cells", "conditions": "cell cultures; Kuiao Y et al. 2007; cited from earlier work"}, "depression": {"system": "depression", "conditions": "preclinical and clinical studies from the literature; cited from earlier work"}},
  "data": [
    {"smiles": "C[C@]12CC[C@@H]3c4ccc(O)cc4CC[C@H]3[C@@H]1CC[C@H]2O", "note": "[17-alpha-estradiol, estra-1,3,5(10)-triene-3,17α-diol]", "values": [
      {"measurement": "neuroprotective effect", "setting": "SK—N—SH cells", "value": "had a neuroprotective effect"},
      {"measurement": "increase of the tumour", "setting": "[1]", "value": "inhibits"},
      {"measurement": "time from the start of the test to the beginning of food intake (first biting)", "setting": "[2]; A50 group: 50 μg/kg (b47 prints 50 mg/kg)", "value": "shorter time than the control animals"},
      {"measurement": "time from the start of the test to the beginning of food intake (first biting)", "setting": "[2]; A150 group: 150 μg/kg (b47 prints 150 mg/kg)", "value": "shorter time than the control animals"},
      {"measurement": "proliferation of LAPC-4 prostate tumour cells", "setting": "[3]", "value": "inhibits proliferation"}
    ]},
    {"smiles": "C[C@]12CC[C@@H]3c4ccc(O)cc4CC[C@H]3[C@@H]1CC[C@@H]2O", "note": "[17-beta-estradiol]", "values": [
      {"measurement": "antidepressant effect", "setting": "depression", "value": "no antidepressant effect"}
    ]}
  ]
}
